Assay results as given in patent US7618977B2, “Method of treating dermatitis comprising administering a chymase inhibitor” (Asubio Pharma Co., Ltd., priority 2000, dated 2009).
Counter-ions that a name gives are not always drawn.

What was measured:
mast cells of skin = test: Increase in number of mast cells of skin in hapten-induced mouse dermatitis model; assay type: in vivo, C3H/HeN mice; conditions: 48 hours after sixth application of hapten
Description: The effect of a chymase inhibitor on the increase in mast cells of skin in the test of Example 10 was studied. In the same way as Example 11, the ears of the mice were fixed with formalin and paraffin sections prepared by an ordinary method 48 hours after the sixth application of hapten. The mast cells of the sections were stained by the Toluidine Blue method, then the number of mast cells were counted under a microscope (×400) for 10 fields per section. The density of mast cells of the skin was measured in accordance with the method of Kitagaki et al. (J. Invest. Dermatol. 105, 749, 1995). As the chymase inhibitor, use was made of Compound 18 and Compound 34. These were administered by the method described in Example 10. Further, a group treated with an acetone/olive oil solution (3:1) not containing DNFB was used as the non-induced control group, while a group treated with DNFB and administered HPC/saline instead of the test substance was used as the control for the group administered the chymase inhibitor.

natural onset dermatitis = test: Natural onset dermatitis (NC/Nga) mice; assay type: in vivo; conditions: 150 mg/kg/day in drinking water, 35 days
Excerpt: NC/Nga mice were bred and raised in accordance with the methods described in previous reports (Progress in Medicine 19, 1201, 1999). Specifically, 5-week old NC/Nga mice obtained from Charles River Japan and raised under a specific pathogen free (SPF) environment were mixed with NC/Nga mice bred by the Faculty of Applied Biological Science of Hiroshima University starting from 6 weeks of age, kept until 15 weeks of age in a normal non-SPF environment, then used for the tests. The tests were conducted under non-SPF, conventional environment. The test substance (Compound 18) was mixed with the drinking water and administered for 35 consecutive days at 150 mg/kg/day (n=7), then an evaluation was conducted in accordance with the method described in previous reports (Progress in Medicine 19, 1201, 1999). That is, first, 35 days after the start of administration, the five items of (1) scratching behavior, (2) edema, (3) erythema and hemorrhaging, (4) depilation and ulceration, and (5) dryness were scored as 0 to 2 and the total found to judge the outer appearance of the skin. Next, the ears and skin of the back were fixed with formalin, embedded in paraffin, and histologically analyzed by staining the ear specimens by the hematoxylin and Eosin method, Toluidine Blue method, or Congo Red method (Stain Technol. 56, 323, 1981) and by staining the back skin specimens by the Toluidine Blue method or Congo Red method. Sections of the ear stained with Hematoxylin and Eosin were evaluated by judging the change in tissue in four scales of 0 to 3 for three items of (1) thickness of epidermis, (2) thickness of dermis, and (3) cellular infiltration and expressing as the total score. Further, the specimens stained with Toluidine Blue and stained with Congo Red were used for counting the mast cells and eosinophils. Specifically, the eosinophils of the back skin were counted in a ×400 field of a microscope, while the other cells were counted in a total of five ×200 fields and the totals expressed.

[1] = test system: human polymorphonuclear leukocytes (PMN); test: Human chymase-induced migration of polymorphonuclear leukocytes, 48-well chemotaxis chamber; assay type: cell-based; conditions: inhibitor in lower well, 1% dimethyl sulfoxide, 37° C. 1 hour
Description: In Example 6, it was shown that a remarkable infiltration of leukocytes is observed in late-phase reaction of human chymase-induced dermatitis. The effect of human chymase on the migration of polymorphonuclear leukocytes (PMN) in vitro was investigated for the purpose of investigating the mechanism of chymase-induced leukocyte infiltration. PMN was isolated by adding a ⅕th volume of 6% dextran solution to heparinized whole blood from normal healthy subject and allowing it to stand at 37° C. for 1 hour, then layering the supernatent on Ficoll-Paque (Amersham Pharmacia Biotech) and centrifuging it. Further, the migration of PMN was measured by using a 48-well chemotaxis chamber (NeuroProbe Co.) by the textbook method (Seibutsu Yakkagaku Jikken Koza (Biopharmacology Experiment Lectures) 12, 315, Hirokawa Shoten). That is, a medium containing human chymase (200 to 800 nM) or fMLP (N-formyl-L-methionyl-L-leucyl-L-phenylalanine, Sigma-Aldrich Co.) (10 nM) was placed in the lower well of the chamber. The upper well and the lower well were separated by a polycarbonate filter (pore size 5 μm) (NeuroProbe Co.) PMN (1×10^6/ml) was added to the upper well and cultured at 37° C. for 1 hour, then the filter was fixed, stained and the number of cells in the membrane were counted under a microscope (400×) (Seibutsu Yakkagaku Jikken Koza (Biopharmacology Experiment Lectures) 12, 315). For the cell staining, a hemacolor solution (Merck) was used. In this test, when investigating the effect of the chymase inhibitor, a chymase inhibitor (Compound 18 or Compound 34) was dissolved in dimethyl sulfoxide and added to the lower well of the chamber just before the addition of the human chymase. The concentration of the compound was adjusted so that the final concentration of the dimethyl sulfoxide became 1%.

[2] = test system: dermatitis induced by repeated application of hapten; test: Mouse dermatitis model induced by repeated application of hapten (DNFB), ear thickness; assay type: in vivo, C3H/HeN mice; conditions: for suppression of increase in ear thickness (skin reaction after hapten application): five days a week
Description: Dermatitis was induced in accordance with an already reported method (J. Pharmacol. Exp. Ther. 283, 321, 1997) using dinitrofluorobenzene (DNFB) as hapten. That is, the right ears of eight-week old female C3H/HeN mice (Nippon Clare) (n=7) were painted with 0.15% DNFB (25 μl) dissolved in an acetone/olive oil (3:1) every seven days six times. When applying the hapten each time, the ear thickness was measured by a micrometer (Digimatic Indicator, Mitsutoyo Co.) immediately before the application and 1 hour, 6 hours, 24 hours, and 48 hours after the application so as to find the amount of increase from the ear thickness before the first application of hapten. Further, a group similarly treated with an acetone/olive oil solution (3:1) not containing DNFB was used as a control. Further, in a test separate from the above, the ears were cut off immediately before the third application of hapten, the chymase-like activity of the skin was measured in accordance with an already reported method (n=3), and this was compared with the activity of mice treated with an acetone/olive oil solution (3:1) not containing DNFB (n=2).
The effect of a test substance on dermatitis was investigated by inducing dermatitis in accordance with the method described in Example 9 (n=7) and measuring the ear thickness in the same way as in Example 9. As the test substance, three chymase inhibitors (Compound 18, Compound 34, and Compound 35) were used, while as the control, the steroid prednisolone (Nakarai Tesc Inc.) was used. Further, the test substance was suspended in saline containing 0.5% hydroxypropyl cellulose in the same way as in Example 3 (HPC/saline) and intraperitoneally administered in dosages of 10 mg/kg or 50 mg/kg once a day for five consecutive days a week until the end of the test; the first administration was performed immediately before the start of the hapten application. Further, a group similarly treated with DNFB and administered HPC/saline instead of the test substance was used as a control group.

eosinophils of the skin = test: Increase in eosinophils of skin in hapten-induced mouse dermatitis model; assay type: in vivo, C3H/HeN mice; conditions: 48 hours after sixth application of hapten
Description: The effect of a chymase inhibitor on the infiltration of eosinophils of the skin in the test of Example 10 was studied. That is, 48 hours after the sixth application of hapten, the ears of the mice were fixed with formalin and paraffin sections prepared in accordance with an ordinary method. The sections were stained with Fast Green (Fluka), known to specifically stain eosinophils (Current Protocol in Immunology, Wiley Interscience). That is, the deparaffined sections were fixed with 100% methanol for 1 minute, then stained for 30 minutes by 0.2% Fast Green dissolved in 70% ethanol. The eosinophils were measured by randomly selecting 10 fields (×400) under a microscope and counting the number of cells per area using an ocular grid. As the chymase inhibitor, the Compound 18 and Compound 34 were used and =administered by the method described in Example 10. Further, a group treated with an acetone/olive oil solution (3:1) not containing DNFB was used as the non-induced control group, while a group treated with DNFB and administered HPC/saline instead of the test substance was used as the control for the group administered the chymase inhibitor.

[3] = test system: Ascaris-induced mouse biphasic dermatitis; test: Ascaris-induced mouse biphasic dermatitis model, ear edema; assay type: in vivo, BALB/c mice
Description: Ascaris-induced biphasic dermatitis was induced according to the method described previously (Folia Pharmacol. Jap. 112, 221, 1998). That is, 8-week old BALB/c mice (Charles River Japan) were sensitized by intraperitoneal injection of 0.5 ml of a 1:1 mixture of ascaris extract (800 μg/ml, Cosmo Bio Co., Ltd.) and an alum saline suspension (16 mg/ml in saline). Two weeks after the sensitization, 10 μl of ascaris extract (1 mg/ml) was injected intradermally to the right ear of mice. The edema induced at the ear were evaluated immediately before intradermal injection of the ascaris extract (n=3) and 1 hour after (n=4), 2 hours after (n=4), 4 hours after (n=4), 6 hours after (n=4), 16 hours after (n=4), and 24 hours after injection (n=4), by weighing ear biopsy prepared with a punch (a diameter of 6 mm, Fukui Kiko Shokai) and measuring their weights. The edema (mg) was expressed as the difference in the weight of the ear punch biopsy between the right and the left ears of the same mouse. Dermatitis was induced in accordance with the method described in Example 2 and the ear edema was measured in the same way as in Example 2, 1 hour (n=6) and 16 hours (n=8) after the intradermal administration of ascaris extract to the ears to investigate the effects of the test substance on dermatitis. As the chymase inhibitor, Compound 34 was used. As the control drug, diphenhydrazine (antihistamine, Sigma) and prednisolone (steroid, Nakarai Tesc Co.) were used. Each drug under study was suspended in saline containing 0.5% hydroxypropyl cellulose and administered intraperiotoneally 60 minutes before intradermal administration of ascaris extract. A group of mice sensitized with ascaris extract and challenged by intradermal injection of saline was used as a control (n=3).

[4] = 10 mg/kg intraperitoneal once a day
[5] = 50 mg/kg intraperitoneal once a day, p<0.05 Dunnett's test
[6] = 50 mg/kg intraperitoneal, 60 minutes before ascaris extract, p<0.01

Which “rate of suppression of increase in density of mast cells” value (mast cells of skin; 10 mg/kg intraperitoneal) does the source give for Nc1cc(S(=O)(=O)n2c(=O)[nH]c3cc(Cl)ccc3c2=O)ccc1C(=O)O [Compound 18, 4-[(7-chloro-2.4 (1H,3H)-quinazolinedion-3-yl)sulfonyl]anthranilic Acid Monosodium Salt] here?
Its value is “about 57%”.

What about the “rate of suppression of increase in density of mast cells” value (mast cells of skin; 50 mg/kg intraperitoneal) of the same compound?
Its value is “about 64%”.

And the “number of mast cells of ear skin and back skin” value (natural onset dermatitis)?
The value was “significant suppressive effect”.

What about the “numbers of eosinophils of ear skin and back skin” value (natural onset dermatitis) of the same compound?
The value was “significantly suppressed”.

And the “histological score of the ears” value (natural onset dermatitis; p<0.05 Mann-Whitney)?
The value was “decreased significantly”.

What about the “dermatitis score (clinical skin score)” value (natural onset dermatitis; vs control group, p<0.05 Mann-Whitney) of the same compound?
The value was “decreased significantly”.

And the “suppression of human chymase-promoted migration of human PMN” value [1]?
The value was “significantly suppressed”.

What about the “suppression of increase in ear thickness (skin reaction after hapten application)” value (“suppression of increase in ear thickness” below) [2, 4] of the same compound?
Its value is “significant effect”.

What about the “suppression of increase in ear thickness” value [2, 5] of the same compound?
Its value is “significantly suppressed”.

What about the “rate of suppression of increase in eosinophils” value (eosinophils of the skin; 10 mg/kg intraperitoneal) of the same compound?
Its value is 37.1%.

And the “rate of suppression of increase in eosinophils” value (eosinophils of the skin; 50 mg/kg intraperitoneal)?
Its value is 60.5%.

What does the source list for CS(=O)(=O)O.Nc1cccc(S(=O)(=O)n2c(=O)[nH]c3cc(Cl)ccc3c2=O)c1 [Compound 34, 3-(3-aminobenzenesulfonyl)-7-chloro-2,4-(1H,3H)quinazolinedion Methanesulfonic Acid Salt]?
rate of suppression of increase in density of mast cells (mast cells of skin; 10 mg/kg intraperitoneal): about 37%; rate of suppression of increase in density of mast cells (mast cells of skin; 50 mg/kg intraperitoneal): about 51%; suppression of human chymase-promoted migration of human PMN [1]: significantly suppressed; suppression of increase in ear thickness (skin reaction after hapten application) [2, 4]: significant suppressive effect; suppression of increase in ear thickness (skin reaction after hapten application) [2, 5]: significantly suppressed; rate of suppression, early-phase reaction (ear edema after 1 hour) [3, 6]: about 41%; rate of suppression, late-phase reaction (ear edema after 16 hours) [3, 6]: about 45%; effect on increase in eosinophils (eosinophils of the skin; 10 and 50 mg/kg intraperitoneal): no statistically significant difference

For Cl.O=c1[nH]c2cc(Cl)ccc2c(=O)n1S(=O)(=O)c1ccc(-c2cc[nH]n2)cc1 [Compound 35, 7-chloro-3-[4-(pyrazol-3-yl)benzenesulfonyl]-2,4(1H,3H)-quinazolinedione Hydrochloride], which “suppression of increase in ear thickness” value [2, 5] is on record?
Its value is “significantly suppressed”.

What does the source list for C[C@]12C=CC(=O)C=C1CC[C@@H]1[C@@H]2[C@@H](O)C[C@@]2(C)[C@H]1CC[C@]2(O)C(=O)CO [Prednisolone, prednisolone]?
suppression of dermatitis (ear thickness) ([2]; control drug, 10 mg/kg or 50 mg/kg intraperitoneal): suppressed dermatitis in this model in a dose-dependent manner; rate of suppression, late-phase reaction ([3]; 30 mg/kg intraperitoneal, 16 hours after challenge): 67%; effect against the early-phase reaction ([3]; control drug, intraperitoneal, 1 hour after challenge): substantially ineffective

For CN(C)CCOC(c1ccccc1)c1ccccc1 [diphenhydrazine], which “rate of suppression, early-phase reaction” value ([3]; control drug, intraperitoneal, dose not given, 1 hour after challenge) is on record?
The value was 79%.

What about the “effect against the late-phase reaction” value ([3]; control drug, intraperitoneal, dose not given, 16 hours after challenge) of the same compound?
The value was “almost no effect”.
